Test results taken from ChEMBL document CHEMBL1201862, “PubChem BioAssay data set” (2004).
Active and inactive are the calls of the source. Unless noted, the rule behind the calls is not given here.

Tests used:
[1] = biological target: Dual specificity protein phosphatase 3 (Homo sapiens, UniProt P51452); assay: SAR VHR1 Fluorescent Assay for In Vitro dose response studies Set 3. [Related pubchem assays (depositor defined):AID1654, AID1661, AID1878]; assay type: functional
Hexokinase-1 = Hexokinase-1 (Homo sapiens, UniProt P19367); assay: SAR analysis of small molecule inhibitors of hexokinase domain containing I (HKDC1) in the hexokinase 1 selectivity assay. [Related pubchem assays (depositor defined):AID493160, AID493190]; assay type: functional
Hexokinase HKDC1 = Hexokinase HKDC1 (Homo sapiens, UniProt Q2TB90); assay: SAR analysis of small molecule inhibitors of hexokinase domain containing I (HKDC1). [Related pubchem assays (depositor defined):AID493160, AID493190]; assay type: functional
Phospholipase D2 = Phospholipase D2 (Homo sapiens, UniProt O14939); assay: PLD2 purified enzyme concentration response. [Related pubchem assays (depositor defined):AID588854]; assay type: functional
Phospholipase D1 = Phospholipase D1 (Homo sapiens, UniProt Q13393); assay: PLD1 purified enzyme concentration response. [Related pubchem assays (depositor defined):AID588854]; assay type: functional
[2] = cytotoxicity in HMLE control line with eGFP shRNA, dose response, counter-screen for HMLE_sh_ECad selective toxicity project, cell-based, HMLE_sh_eGFP, luminescence (AID 463074); assay type: functional, Homo sapiens;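 also: HMLE human mammary epithelial cells expressing control shRNA against eGFP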
[3] = biological target: T1, Mannose-6-phosphate isomerase (Homo sapiens, UniProt P34949); assay: human PMI inhibitors, high substrate, primary screen, biochemical, fluorescence intensity, high mannose 6-phosphate (AID 1220)
T1 sequence (P34949 whole entry): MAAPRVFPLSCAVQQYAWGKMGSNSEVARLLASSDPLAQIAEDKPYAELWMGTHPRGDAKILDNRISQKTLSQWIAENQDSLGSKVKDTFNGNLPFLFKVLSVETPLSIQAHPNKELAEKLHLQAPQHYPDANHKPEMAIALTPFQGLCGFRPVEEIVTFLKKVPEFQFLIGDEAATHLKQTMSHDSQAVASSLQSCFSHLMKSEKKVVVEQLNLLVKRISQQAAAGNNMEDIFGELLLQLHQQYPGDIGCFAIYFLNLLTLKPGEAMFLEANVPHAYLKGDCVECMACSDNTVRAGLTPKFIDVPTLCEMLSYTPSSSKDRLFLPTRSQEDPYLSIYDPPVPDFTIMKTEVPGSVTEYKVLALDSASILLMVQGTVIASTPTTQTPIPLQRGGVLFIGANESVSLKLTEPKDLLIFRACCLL

[4] = biological target: T2, Tyrosyl-DNA phosphodiesterase 2 (Homo sapiens, UniProt O95551); assay: human TDP2 enzyme inhibitors, dose response, biochemical, epi absorbance, IC50 (AID 743297)
T2 sequence (O95551 whole entry): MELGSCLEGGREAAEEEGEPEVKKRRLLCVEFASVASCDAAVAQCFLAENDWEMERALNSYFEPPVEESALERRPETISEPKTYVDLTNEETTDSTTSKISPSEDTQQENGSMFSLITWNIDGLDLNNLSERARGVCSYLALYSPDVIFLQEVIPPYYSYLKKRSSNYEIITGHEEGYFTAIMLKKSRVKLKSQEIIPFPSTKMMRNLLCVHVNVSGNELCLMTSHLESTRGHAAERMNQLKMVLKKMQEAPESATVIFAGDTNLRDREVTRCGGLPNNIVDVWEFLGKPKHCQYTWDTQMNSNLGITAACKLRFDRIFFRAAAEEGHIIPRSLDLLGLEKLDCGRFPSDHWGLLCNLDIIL

[5] = Luminescence Cell-Based Dose Retest to Confirm Inhibitors of Cancer Stem Cells. [Related pubchem assays (depositor defined):AID2717, AID2721]; assay type: functional; conditions: Homo sapiens

Chain of Hexokinase HKDC1 (Q2TB90 whole entry, the tested form may be a part): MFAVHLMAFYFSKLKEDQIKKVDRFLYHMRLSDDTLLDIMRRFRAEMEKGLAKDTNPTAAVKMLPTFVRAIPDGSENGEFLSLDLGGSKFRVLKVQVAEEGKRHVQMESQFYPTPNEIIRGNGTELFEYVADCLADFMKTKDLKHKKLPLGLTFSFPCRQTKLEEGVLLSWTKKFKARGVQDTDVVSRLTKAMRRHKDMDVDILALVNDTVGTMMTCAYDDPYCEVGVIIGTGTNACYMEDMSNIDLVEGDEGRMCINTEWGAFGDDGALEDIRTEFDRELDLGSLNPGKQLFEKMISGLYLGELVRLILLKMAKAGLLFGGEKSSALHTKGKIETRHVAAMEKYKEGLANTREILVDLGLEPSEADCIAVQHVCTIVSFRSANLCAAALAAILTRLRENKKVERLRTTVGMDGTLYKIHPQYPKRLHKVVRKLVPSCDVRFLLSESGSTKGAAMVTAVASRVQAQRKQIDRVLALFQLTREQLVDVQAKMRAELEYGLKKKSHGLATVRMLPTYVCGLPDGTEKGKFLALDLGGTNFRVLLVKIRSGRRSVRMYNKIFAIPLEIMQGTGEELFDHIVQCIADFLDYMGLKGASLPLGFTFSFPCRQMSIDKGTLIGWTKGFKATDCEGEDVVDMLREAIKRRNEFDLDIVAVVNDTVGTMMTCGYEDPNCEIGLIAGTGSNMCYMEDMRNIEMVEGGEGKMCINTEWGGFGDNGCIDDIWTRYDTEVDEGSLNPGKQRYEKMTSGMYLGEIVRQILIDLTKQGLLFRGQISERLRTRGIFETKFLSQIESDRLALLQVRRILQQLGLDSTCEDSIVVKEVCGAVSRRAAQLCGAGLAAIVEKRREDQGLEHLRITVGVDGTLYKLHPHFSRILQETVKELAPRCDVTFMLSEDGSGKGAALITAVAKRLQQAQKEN
Chain of Phospholipase D2 (O14939 whole entry): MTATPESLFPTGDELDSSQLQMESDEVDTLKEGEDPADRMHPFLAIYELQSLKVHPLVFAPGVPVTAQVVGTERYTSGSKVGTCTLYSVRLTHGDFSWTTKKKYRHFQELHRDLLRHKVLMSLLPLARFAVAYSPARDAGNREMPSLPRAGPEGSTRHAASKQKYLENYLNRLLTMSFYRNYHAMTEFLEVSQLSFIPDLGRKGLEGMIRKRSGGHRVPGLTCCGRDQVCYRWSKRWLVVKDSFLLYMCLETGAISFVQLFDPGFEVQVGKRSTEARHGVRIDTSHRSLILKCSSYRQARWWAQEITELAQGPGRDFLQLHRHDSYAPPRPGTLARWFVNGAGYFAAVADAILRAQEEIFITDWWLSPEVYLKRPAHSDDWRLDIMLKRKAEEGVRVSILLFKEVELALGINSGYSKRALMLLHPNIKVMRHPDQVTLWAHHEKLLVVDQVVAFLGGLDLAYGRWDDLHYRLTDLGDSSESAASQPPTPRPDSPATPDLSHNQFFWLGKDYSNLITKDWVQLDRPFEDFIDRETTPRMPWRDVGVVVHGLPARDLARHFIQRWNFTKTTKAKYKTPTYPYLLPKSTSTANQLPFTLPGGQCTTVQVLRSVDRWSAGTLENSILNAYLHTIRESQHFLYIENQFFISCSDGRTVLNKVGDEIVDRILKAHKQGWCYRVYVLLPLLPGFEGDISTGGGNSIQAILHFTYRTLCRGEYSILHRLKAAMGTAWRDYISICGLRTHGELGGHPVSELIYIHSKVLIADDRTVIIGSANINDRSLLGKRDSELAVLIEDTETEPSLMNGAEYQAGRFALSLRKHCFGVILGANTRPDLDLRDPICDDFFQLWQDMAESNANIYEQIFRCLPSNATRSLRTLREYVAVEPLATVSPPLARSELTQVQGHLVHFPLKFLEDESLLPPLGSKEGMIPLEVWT
Chain of Phospholipase D1 (Q13393 whole entry): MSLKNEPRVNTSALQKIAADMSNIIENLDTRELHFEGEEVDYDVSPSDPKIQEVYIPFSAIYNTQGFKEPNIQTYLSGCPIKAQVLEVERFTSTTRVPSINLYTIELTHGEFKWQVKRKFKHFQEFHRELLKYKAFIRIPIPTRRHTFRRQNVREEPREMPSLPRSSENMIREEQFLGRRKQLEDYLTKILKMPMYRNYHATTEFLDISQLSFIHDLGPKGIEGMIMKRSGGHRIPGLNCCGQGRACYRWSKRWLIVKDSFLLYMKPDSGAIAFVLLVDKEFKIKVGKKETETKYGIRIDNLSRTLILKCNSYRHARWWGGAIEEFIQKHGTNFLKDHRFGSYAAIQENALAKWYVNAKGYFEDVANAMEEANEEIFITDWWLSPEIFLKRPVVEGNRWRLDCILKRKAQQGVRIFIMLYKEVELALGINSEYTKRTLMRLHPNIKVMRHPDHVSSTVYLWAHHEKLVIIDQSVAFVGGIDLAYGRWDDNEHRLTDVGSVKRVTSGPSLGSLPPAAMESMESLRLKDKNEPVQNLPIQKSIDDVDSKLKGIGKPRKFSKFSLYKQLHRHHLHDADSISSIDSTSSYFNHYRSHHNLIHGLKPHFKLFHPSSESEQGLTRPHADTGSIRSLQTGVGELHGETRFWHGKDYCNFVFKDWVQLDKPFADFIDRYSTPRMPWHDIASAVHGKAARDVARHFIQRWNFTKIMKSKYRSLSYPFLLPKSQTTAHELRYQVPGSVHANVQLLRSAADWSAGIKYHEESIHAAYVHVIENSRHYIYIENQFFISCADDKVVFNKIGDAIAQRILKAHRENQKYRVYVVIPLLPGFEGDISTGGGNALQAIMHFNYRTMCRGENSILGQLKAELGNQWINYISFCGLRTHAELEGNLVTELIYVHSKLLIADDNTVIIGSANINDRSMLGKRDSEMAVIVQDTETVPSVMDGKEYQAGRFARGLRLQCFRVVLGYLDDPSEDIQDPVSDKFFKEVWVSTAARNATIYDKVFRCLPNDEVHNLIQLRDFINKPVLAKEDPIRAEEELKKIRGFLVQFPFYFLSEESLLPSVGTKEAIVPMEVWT
Chain of Dual specificity protein phosphatase 3 (P51452 whole entry, the tested form may be a part): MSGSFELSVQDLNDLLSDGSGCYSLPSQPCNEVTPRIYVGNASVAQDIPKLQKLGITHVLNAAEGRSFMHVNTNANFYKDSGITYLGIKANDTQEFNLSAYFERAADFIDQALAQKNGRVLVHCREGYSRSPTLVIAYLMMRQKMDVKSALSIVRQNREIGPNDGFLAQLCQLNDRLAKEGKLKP
Chain of Hexokinase-1 (P19367 whole entry, the tested form may be a part): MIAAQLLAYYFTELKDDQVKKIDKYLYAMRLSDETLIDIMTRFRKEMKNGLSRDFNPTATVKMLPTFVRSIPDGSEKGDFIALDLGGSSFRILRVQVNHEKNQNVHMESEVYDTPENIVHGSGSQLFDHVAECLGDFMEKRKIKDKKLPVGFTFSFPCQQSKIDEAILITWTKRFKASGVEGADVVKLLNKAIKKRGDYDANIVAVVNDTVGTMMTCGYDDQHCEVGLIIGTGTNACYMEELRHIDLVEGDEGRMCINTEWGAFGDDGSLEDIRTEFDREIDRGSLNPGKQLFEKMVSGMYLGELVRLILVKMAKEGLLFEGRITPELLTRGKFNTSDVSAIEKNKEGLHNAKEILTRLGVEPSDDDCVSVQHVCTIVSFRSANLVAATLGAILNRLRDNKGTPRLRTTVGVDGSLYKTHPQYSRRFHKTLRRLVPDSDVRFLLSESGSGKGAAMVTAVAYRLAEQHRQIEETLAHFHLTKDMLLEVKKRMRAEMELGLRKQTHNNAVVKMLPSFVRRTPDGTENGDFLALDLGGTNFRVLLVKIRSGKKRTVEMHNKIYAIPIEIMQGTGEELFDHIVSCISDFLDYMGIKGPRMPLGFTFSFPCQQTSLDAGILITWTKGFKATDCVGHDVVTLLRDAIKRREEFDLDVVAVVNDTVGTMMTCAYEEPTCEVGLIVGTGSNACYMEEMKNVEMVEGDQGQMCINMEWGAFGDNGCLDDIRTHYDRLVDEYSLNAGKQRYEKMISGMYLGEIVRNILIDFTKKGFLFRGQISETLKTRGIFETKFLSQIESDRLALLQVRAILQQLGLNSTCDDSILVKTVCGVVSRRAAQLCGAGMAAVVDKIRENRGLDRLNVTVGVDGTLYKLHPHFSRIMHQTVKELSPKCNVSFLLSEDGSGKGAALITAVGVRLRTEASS

COc1ccc(-c2nnc(Nc3nc4c(F)cccc4s3)o2)cc1
IC50 [1]: 3.71 µM (active)

COc1ccc(/C=C/c2nc3ccccc3c(=O)n2Cc2ccccc2)cc1
IC50 (Hexokinase-1): > 80 µM (inactive) | IC50 (Hexokinase HKDC1): > 80 µM (inactive)

O=C(NCCN1CCC2(CC1)C(=O)NCN2c1cccc(F)c1)c1cnc2ccccc2c1
IC50 (Phospholipase D2): 0.13 µM (active) | IC50 (Phospholipase D1): 2.8 µM (active)

Oc1c(/C=N/c2cccc3nsnc23)ccc2ccccc12
AC50 [2]: 29.4 µM (active) | IC50 [3]: > 50 µM (not active) | IC50 [4]: 80.5 µM (inactive) | AC50 [5]: 23.7 µM (active)
